Laboratory results published in US20210246439A1, “ENGINEERED BI-STABLE TOGGLE SWITCH AND USES THEREOF” (Massachusetts Institute of Technology, priority 2020, published 2021).
Values belong to the molecule of their own block, whether it stands above or below them.

How the values were obtained:
[1] = system: engineered bi-stable toggle switch (CasE-PEST, Csy4-PEST, DDd-CasE, DDe-DDe-Csy4) in HEK293 cells; assay: Toggle switch with DDd-CasE and DDe-DDe-Csy4 in transfected HEK293 cells, small-molecule control, flow cytometry of mKO2/eYFP; format: cell-based, human
Experimental: Output fluorescent protein genes may also contain PERSIST activation domains to decrease expression in the OFF state. […] Further, HEK293 cells were transfected with CasE-PEST, Csy4-PEST, DDd-CasE and DDe-DDe-Csy4 transiently and cultured in the absence of small molecule for 24 hours.

[2] = system: CasE target hairpin containing a theophylline responsive aptamer; assay: Proof of concept: CasE target hairpin with theophylline responsive aptamer 5' of eYFP, co-delivered with CasE; format: cell-based, human; settings: HEK293 cells, versus absence of theophylline
Source text: Alternatively, the engineered bi-stable toggle switch described in Example 1 can be designed to be able to respond to different small molecules to switch the system between different states. In this system, each of the endoRNAse target sites can include a small molecule-response aptamers. Binding of the small molecule to the aptamer stabilizes a secondary structure in the aptamer RNA that blocks the endoRNAse from cleaving its recognition hairpin. As illustrated by FIG. 4A, the CRISPR-endoRNAse recognition hairpin contains an aptamer sequence capable of binding to a small molecule. In the absence of the small molecule, the endoRNAse is able to cleave the recognition hairpin; however, the addition of the small molecule to the system induces a conformational change of the endoRNAse target hairpin, and such conformational change renders the endoRNAse incapable of binding and cleaving its target hairpin. […] In this experiment, a CasE target hairpin containing a theophylline responsive aptamer was placed 5′ of an eYFP coding sequence in an eYFP-expressing construct. This eYFP-expressing construct was co-delivered to HEK293 cells with another construct expressing CasE.

[3] = system: engineered bi-stable motif; assay: Screening of promoter and degradation domain combinations with Csy4 on the bi-stable motif (polytransfection, eYFP/TagBFP); format: cell-based
Experimental: Csy4 was first selected to be fused with either one copy or two copies of DDd domain or DDe domain respectively: DDe-Csy4, DDe-DDe-Csy4, DDd-Csy4, and DDd-DDd-Csy4. Various promoters (e.g., phEF1α, pUbc, and pPh1f) were used to drive the expression of the Csy4 or Csy4-degradation domain fusion proteins. pPh1f promoters were tested in the presence of Gal4-NLS-VP64. As a result, the following constructs were generated: phEF1α-Csy4, pUbc-DDd-Csy4, pUbc-DDd-DDd-Csy4, pPh1f-DDd-DDd-Csy4, pPh1f-DDd-Csy4-PEST, pPh1f-DDe-Csy4, pUbc-DDe-Csy4, pUbc-DDe-Csy4-PEST, pPh1f-DDe-DDe-Csy4, pUbc-DDe-DDe-Csy4, and pUbc-DDe-DDe-Csy4-PEST. Each of the constructs and the engineered bi-stable toggle switch described in Example 1 were delivered to the cells by polytransfection (Gam et al, A ‘poly-transfection’ method for rapid, one-pot characterization and optimization of genetic systems, Nucleic Acids Research, Volume 47, Issue 18, 10 Oct. 2019, Page e106). The output molecules were eYFP and TagBFP. The system was designed such that Csy4 represses eYFP and CasE represses TagBFP. A cell in the CasE-high state expressed eYFP and a cell in the Csy4-high state expresses TagBFP. The ratio between CasE to Csy4 was set at 6.7 times as much CasE as Csy4, biasing the system towards a CasE-high state in the absence of additional proteins. […]

[4] = system: engineered bi-stable motif; assay: Screening of DDd-CasE fusion proteins on the bi-stable motif (polytransfection, eYFP/TagBFP); format: cell-based; settings: hEF1α promoter, among CasE-DDd fusions screened
Experimental: Further, fusion proteins between CasE and one or more DDd domains were screened similarly as described above. In this experiment, only hEF1α promoter was tested. Each of the construct and the engineered bi-stable toggle switch described in Example 1 were delivered to the cells by polytransfection. The output molecules were eYFP and TagBFP. The system was designed such that Csy4 represses eYFP and CasE represses TagBFP. A cell in the CasE-high state expressed eYFP and a cell in the Csy4-high state expresses TagBFP. The ratio between CasE to Csy4 was set at 1.6 times as much Csy4 as CasE, biasing the system towards a Csy4-high state in the absence of additional proteins.

Molecule: 4-hydroxytamoxifen [4-OHT]
state the bi-stable toggle switch stabilizes on ([1]; small molecule in the system for 24 hours): Csy4-high/CasE-low state (mKO2-high/eYFP-low)

Molecule: COc1cc(Cc2cnc(N)nc2N)cc(OC)c1OC [TMP, trimethoprim]
reporter expression after small molecule addition ([1]; 10 μM added at 24 hrs and maintained for 48 hrs, roughly equal mKO2 and eYFP before addition): higher frequencies of eYFP expression than mKO2 expression

eYFP expression in the presence of theophylline (repression by CasE lifted) [2]: two-folds increase
Molecule: Cn1c(=O)c2[nH]cnc2n(C)c1=O [theophylline]

B1: DDe-DDe-Csy4: fusion protein of two DDe domains and Csy4, nucleotide sequence SEQ ID NO: 5 (protein)
chain: MSLALSLTADQMVSALLDAEPPILYSEYDPTRPFSEASMMGLLTNLADRELVHMINWAKRVPGFVDLALHDQVHLLECAWMEILMIGLVWRSMEHPGKLLFAPNLLLDRNQGKCVEGGVEIFDMLLATSSRFRMMNLQGEEFVCLKSIILLNSGVYTFLSSTLKSLEEKDHIHRVLDKITDTLIHLMAKAGLTLQQQHQRLAQLLLILSHIRHMSSKRMEHLYSMKCKNVVPLSDLLLEMLDAHRLMSLALSLTADQMVSALLDAEPPILYSEYDPTRPFSEASMMGLLTNLADRELVHMINWAKRVPGFVDLALHDQVHLLECAWMEILMIGLVWRSMEHPGKLLFAPNLLLDRNQGKCVEGGVEIFDMLLATSSRFRMMNLQGEEFVCLKSIILLNSGVYTFLSSTLKSLEEKDHIHRVLDKITDTLIHLMAKAGLTLQQQHQRLAQLLLILSHIRHMSSKRMEHLYSMKCKNVVPLSDLLLEMLDAHRLMDHYLDIRLRPDPEFPPAQLMSVLFGKLHQALVAQGGDRIGVSFPDLDESRSRLGERLRIHASADDLRALLARPWLEGLRDHLQFGEPAVVPHPTPYRQVSRVQAKSNPERLRRRLMRRHDLSEEEARKRIPDTVARALDLPFVTLRSQSTGQHFRLFIRHGPLQVTAEEGGFTCYGLSKGGFVPWF
capability of (i) being degraded in the absence of 4-OHT and (ii) cleaving RNA efficiently in the presence of 4-OHT ([3]; among Csy4 fusion constructs screened): best capability | fraction of cells in the TagBFP high state with versus without 4-OHT ([3]; regardless of promoter, especially in higher ratio bins): higher fraction of cells in the TagBFP high state when 4-OHT is present than without

B2: DDd-CasE: fusion protein of DDd domain and CasE, nucleotide sequence SEQ ID NO: 6 (protein)
chain: MYLSKIIIARAWSRDLYQLHQELWHLFPNRPDAARDFLFHVEKRNTPEGCHVLLQSAQMPVSTAVATVIKTKQVEFQLQVGVPLYFRLRANPIKTILDNQKRLDSKGNIKRCRVPLIKEAEQIAWLQRKLGNAARVEDVHPISERPQYFSGEGKNGKIQTVCFEGVLTINDAPALIDLLQQGIGPAKSMGCGLLSLAPLMISLIAALAVDYVIGMENAMPWNLPADLAWFKRNTLNKPVIMGRHTWESIGRPLPGRKNIILSSQPSTDDRVTWVKSVDEAIAACGDVPEIMVIGGGRVIEQFLPKAQKLYLTHIDAEVEGDTHFPDYEPDDWESVFSEFHDADAQNSHSYCFEILERR
being degraded in the absence of TMP and cleaving RNA in the presence of TMP [4]: better at (i) being degraded in the absence of TMP; and (ii) cleaving RNA efficiently in the presence of TMP
